From patent publication US6485931B2, “CHOLESTEROL DEHYDROGENASE, COPROSTAN-3-ONE DEHYDROGENASE AND 4-CHOLESTEN-3-ONE DEHYDROGENASE, COMPOSITIONS CONTAINING THE DEHYDROGENASES, AND METHOD FOR REDUCING AMOUNT OF CHOLESTEROL USING THE COMPOSITIONS” (Kyowa Hakko Kogyo Co., Ltd., priority 1996, dated 2002)

Assays:
[1] = system: 4-cholesten-3-one dehydrogenase B; assay: 4-cholesten-3-one dehydrogenase B titer: coprostan-3-one produced, TLC/FID; format: biochemical, Eubacterium sp. CP 1; settings: for relative activity (enzyme activity without adding inhibitor is 100): 1 mM inhibitor, 30 minutes, pH 7.5, 37° C.; for relative activity in comparison with the case of no addition: 1 mM metal salt
Protocol: (§1) An enzyme solution was allowed to stand still at 37° C. for 15 minutes using various pH buffer solutions, and remaining activity was measured, and pH range in which activity was not less than 50% of the maximum active value was regarded as a stable pH range. (The following is the same.)
With 0.2 ml of 3 mM 4-cholesten-3-one micelle solution containing 0.33% Triton X-100 is mixed 0.3 ml of a 20 mM Tris-hydrochloric acid buffer solution (pH 7.5) containing 1.0% Triton X-100and 1 mM DTT, and 0.1 ml of a10 mM NADH solution, the resulted mixture is added 0.05 ml of an enzyme solution, reacted for 30 minutes at 37° C., and then added 0.1 ml of chloroform to extract sterol and to terminate the reaction.
(§2) Then, the quantity of coprostan-3-one produced in the reaction solution is determined using TLC/FID iatroscan. The quantity of coprostan-3-one produced in the reaction solution is determined likewise using an inactivated enzyme which has been previously heated as a control. The enzyme activity which produces 1 μmol of coprostan-3-one per one minute is regarded as 1 unit.

cholesterol in meat = assay: enzymatic conversion to coprostanol in aging period of meat (Embodiment 10); format: biochemical; settings: minced beef, each enzyme 0.2 unit/g meat, PL-D 2 unit/g meat, 0.5 ml 20% nicotinamide, aged 7 days
Protocol: 10 g of beef 6 hours after slaughtering was made into minced meat, and to this was added the cholesterol dehydrogenase obtained in Embodiment 5 (0.2 unit/g meat), the 4-cholesten-3-one dehydrogenase obtained in Embodiment 6 (0.2 unit/g meat) and the coprostan-3-one dehydrogenase obtained in Embodiment 7 (0.2 unit/g meat) and mixed, and the mixture was aged at 5° C. for 7 days. Also, mixtures to which 0.5 ml of a 20% aqueous nicotinamide solution had been further added, meat to which phospholipase (2 unit/g meat) had been further added and meat to which both of them had been further added at the mixing were aged at […] for 7 days, respectively.
After aging, the meat was freeze-dried and lipid components were extracted with a 25 ml extraction solvent (chloroform:methanol=2:1). Regarding the resulting extracted sample, the amount of converted sterol products was determined using gas chromatography (manufactured by GL Science, TC-1701, column φ0.25 […]×30 m). In Table 5, PL-D represents phospholipase D and COP represents coprostanol, respectively.

[2] = system: coprostan-3-one dehydrogenase B; assay: coprostan-3-one dehydrogenase B titer: coprostanol produced, TLC/FID; format: biochemical, Eubacterium sp. CP 1; settings: for relative activity (enzyme activity without adding inhibitor is 100): 1 mM inhibitor, 30 minutes, pH 7.5, 37° C.; for relative activity in comparison to the case of no addition: 1 mM metal salt
Protocol: as §1
(§3) With 0.2 ml of 3 mM coprostan-3-one micelle solution containing 0.33% Triton X-100 is mixed 0.3 ml of a 20 mM Tris-hydrochloric acid buffer solution (pH 7.5) containing 1.0% Triton X-100 and 1 mM DTT, and 0.1 ml of a 10 mM NADPH solution, to the resulted mixture is added 0.05 ml of an enzyme solution, reacted for 30 minutes at 37° C., and then added 0.1 ml of chloroform to extract sterol and to terminate the reaction.
(§4) Then, the quantity of coprostanol produced in the reaction solution is determined using TLC/FID iatroscan. The quantity of coprostanol in the reaction solution is determined likewise using an inactivated enzyme which has been previously heated as a control. The enzyme activity which produces 1 μmol of coprostanol per one minute is regarded as 1 unit.

[3] = system: cholesterol dehydrogenase B; assay: cholesterol dehydrogenase B titer: 4-cholesten-3-one produced, TLC/FID; format: biochemical, Eubacterium sp. CP 1; settings: for relative activity (enzyme activity without adding inhibitor is 100): 1 mM inhibitor, 30 minutes, pH 7.5, 37° C.; for relative activity as substrate (activity of cholesterol defined as 100): substrate specificity; for relative activity in comparison to the case of no addition: 1 mM metal salt
Protocol: as §1
as §3, with “cholesterol” for “coprostan-3-one”, “50” for “20”, “phosphoric” for “Tris-hydrochloric”, “NADP” for “NADPH”
Then, the quantity of 4-cholesten-3-one produced in the reaction solution is determined using TLC/FID iatroscan. […] The enzyme activity which produces 1 μmol of 4-cholesten-3-one per one minute is regarded as 1 unit.

[4] = system: 4-cholesten-3-one dehydrogenase A; assay: 4-cholesten-3-one dehydrogenase A titer: coprostan-3-one produced, TLC/FID; format: biochemical, Eubacterium sp. CP 2; settings: for relative activity (enzyme activity without adding inhibitor defined as 100): 1 mM inhibitor, 30 minutes, pH 7.5, 37° C.; for relative activity in comparison to the case of no addition: 1 mM metal salt; for relative activity as substrate (activity of 4-cholesten-3-one defined as 100): substrate specificity
Protocol: as §1
With 0.2 ml of 3 mM 4-cholesten-3-one micelle solution containing 0.33% Triton X-100 is mixed 0.3 ml of a 20 mM PIPES buffer solution (pH 7.5) containing 0.5% Triton X-100 and 1 mM DTT, and 0.1 ml of a 10 mM NADH solution, the resulted mixture is added 0.05 ml of an enzyme solution, and reacted for 30 minutes at 37° C., and then added 0.1 ml of chloroform to extract sterol and to terminate the reaction.
as §2

[5] = system: cholesterol dehydrogenase A; assay: cholesterol dehydrogenase A titer: 4-cholesten-3-one produced from cholesterol micelle, TLC/FID; format: biochemical, Eubacterium sp. CP 2; settings: for relative activity (enzyme activity without adding inhibitor defined as 100): 1 mM inhibitor, 30 minutes, pH 7.5, 37° C.; for relative activity as substrate (activity of cholesterol is 100): substrate specificity; for relative activity in comparison with the case of no addition: 1 mM metal salt
Protocol: as §1
With 0.2 ml of 3 mM cholesterol micelle solution containing 0.33% Triton X-100 is mixed 0.3 ml of a 20 mM piperazine-N,N′-bis-(2-ethane […]) (hereinafter, referred to as “PIPES”) buffer solution (pH 7.5) containing 0.5% Triton X-100 and 1 mM dithiothreitol (hereinafter, referred to as “DTT”), and 0.1 ml of a 10 mM […] solution, the resulted mixture is added 0.05 ml of an enzyme solution, reacted for 30 minutes at 37° C., and then added 0.1 ml of chloroform to extract sterol and to terminate the reaction.
as §2, with “4-cholesten-3-one” for “coprostan-3-one”

[6] = system: coprostan-3-one dehydrogenase A; assay: coprostan-3-one dehydrogenase A titer: coprostanol produced, TLC/FID; format: biochemical, Eubacterium sp. CP 2; settings: for relative activity (enzyme activity without adding inhibitor defined as 100): 1 mM inhibitor, 30 minutes, pH 7.5, 37° C.; for relative activity in comparison with the case of no addition: 1 mM metal salt
Protocol: as §1
[…] The enzyme solution was mixed with equal amounts of activating fractions and left for 15 minutes at 5° C., then used.
as §4

[7] = in vivo; cited from earlier work

CC(C)CCC[C@@H](C)[C@H]1CC[C@H]2[C@@H]3CC=C4CC(=O)CC[C@]4(C)[C@H]3CC[C@]12C [5-cholestenon-3-one]
relative activity as substrate (activity of 4-cholesten-3-one defined as 100) ([1]; substrate specificity): 0

NC(=O)c1cccnc1 [Nicotinamide, nicotinamide]
COP conversion (%) (cholesterol in meat): 0%

O=S(=O)(O)c1cc[c]([Hg][Cl])cc1 [PCMB, p-chloro mercury phenylsulfonate]
relative activity (enzyme activity without adding inhibitor is 100) [2]: 0
relative activity (enzyme activity without adding inhibitor is 100) [3]: 0
relative activity (enzyme activity without adding inhibitor defined as 100) [4]: 47
relative activity (enzyme activity without adding inhibitor defined as 100) [5]: 0
relative activity (enzyme activity without adding inhibitor is 100) [1]: 0
relative activity (enzyme activity without adding inhibitor defined as 100) [6]: 41

CC(C)[C@H](C)CC[C@@H](C)[C@H]1CC[C@H]2[C@@H]3CC=C4C[C@@H](O)CC[C@]4(C)[C@H]3CC[C@]12C [campesterol]
relative activity as substrate (activity of cholesterol defined as 100) [3]: 50
relative activity as substrate (activity of cholesterol is 100) [5]: 74

[Cl][Cu][Cl] [copper chloride]
relative activity in comparison to the case of no addition [2]: 0
relative activity in comparison to the case of no addition [3]: 0
relative activity in comparison to the case of no addition [4]: 0
relative activity in comparison with the case of no addition [5]: 3.2
relative activity in comparison with the case of no addition [1]: 0
relative activity in comparison with the case of no addition [6]: 2.7

CC(C)CCC[C@@H](C)[C@H]1CC[C@H]2[C@@H]3CC[C@@H]4C[C@@H](O)CC[C@]4(C)[C@H]3CC[C@]12C [coprostanol]
absorbability through the intestinal tract [7]: very low

NC(=O)CI [iodine acetamide]
relative activity (enzyme activity without adding inhibitor is 100) [2]: 95
relative activity (enzyme activity without adding inhibitor defined as 100) [4]: 94
relative activity (enzyme activity without adding inhibitor defined as 100) [5]: 82
relative activity (enzyme activity without adding inhibitor is 100) [1]: 99
relative activity (enzyme activity without adding inhibitor defined as 100) [6]: 82

O=C(O)CI [iodine acetic acid]
relative activity (enzyme activity without adding inhibitor is 100) [3]: 98

O=P([O-])([O-])[O-].[Na+].[Na+].[Na+] [phosphate ion, trisodium phosphate]
effect on conversion reaction by cholesterol dehydrogenase B [3]: remarkably activated

CC(=O)[C@H]1CC[C@H]2[C@@H]3CCC4=CC(=O)CC[C@]4(C)[C@H]3CC[C@]12C [progesterone]
relative activity as substrate (activity of 4-cholesten-3-one defined as 100) [4]: 41

CC[C@H](/C=C/[C@@H](C)[C@H]1CC[C@H]2[C@@H]3CC=C4C[C@@H](O)CC[C@]4(C)[C@H]3CC[C@]12C)C(C)C [stigmasterol]
relative activity as substrate (activity of cholesterol defined as 100) [3]: 39
relative activity as substrate (activity of cholesterol is 100) [5]: 30

C[C@]12CC[C@H]3[C@@H](CCC4=CC(=O)CC[C@@]43C)[C@@H]1CC[C@@H]2O [testosterone]
relative activity as substrate (activity of 4-cholesten-3-one defined as 100) [4]: 0

CC[C@H](CC[C@@H](C)[C@H]1CC[C@H]2[C@@H]3CC=C4C[C@@H](O)CC[C@]4(C)[C@H]3CC[C@]12C)C(C)C [β sitosterol]
relative activity as substrate (activity of cholesterol defined as 100) [3]: 67
relative activity as substrate (activity of cholesterol is 100) [5]: 38

iron chloride
relative activity in comparison to the case of no addition [2]: 105
relative activity in comparison to the case of no addition [3]: 0
relative activity in comparison to the case of no addition [4]: 110
relative activity in comparison with the case of no addition [5]: 95
relative activity in comparison with the case of no addition [1]: 107
relative activity in comparison with the case of no addition [6]: 12

prognerone
relative activity as substrate (activity of 4-cholesten-3-one defined as 100) [4]: 0
